Measured values as given in US12331040B2 (Karyopharm Therapeutics Inc., priority 2013, dated 2025).
Like-named read-outs stand apart in the source and are kept apart here.

Experiments:
3T3 cells = experiment: MTT cell proliferation assay; format: cell-based; conditions: Mus musculus, NIH3T3, approximately 64-72 hours incubation
How it was run: (§1)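 Cytotoxicity was measured by MTT: OD490 of the solubilized formazan after roughly 4 h with MTT reagent, reported as mean percent inhibition relative to the negative control. Test compounds covered eight concentrations between 1 nM and 30 μM, added to 5,000–10,000 cells per well that had attached overnight.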

MS751 cells = experiment: MTT cell proliferation assay; format: cell-based; conditions: Homo sapiens, MS751, MS751 cells, approximately 64-72 hours incubation
How it was run: as §1

Z138 cells = experiment: MTT cell proliferation assay; format: cell-based; conditions: Homo sapiens, Z-138, Z138 cells, approximately 64-72 hours incubation
How it was run: as §1

MRC-5 cells = experiment: MTT cell proliferation assay; format: cell-based; conditions: Homo sapiens, MRC5; MRC-5 cell line
Experimental: (§2) The MTT cell proliferation assay was used to study the cytotoxic properties of the compounds. The assay was performed according to the method described by Roche Molecular Biochemicals, with minor modifications. The assay is based on the cleavage of the tetrazolium salt, MTT, in the presence of an electron-coupling reagent. The water-insoluble formazan salt produced must be solubilized in an additional step. Cells grown in a 96-well tissue culture plate were incubated with the MTT solution for approximately 4 hours. After this incubation period, a water-insoluble formazan dye formed. After solubilization, the formazan dye was quantitated using a scanning multi-well spectrophotometer (ELISA reader). […] The cells were seeded at 5,000-10,000 cells in each well of 96-well plate in 100 μL of fresh culture medium and were allowed to attach overnight. The stock solutions of the compounds were diluted in 100 μL cell culture medium to obtain eight concentrations of each test compound, ranging from 1 nM to 30 μM. […] All optical densities were measured at 490 nm using a Vmax Kinetic Microplate Reader (Molecular Devices). In most cases, the assay was performed in duplicate and the results were presented as a mean percent inhibition to the negative control±SE. The following formula was used to calculate the percent of inhibition: Inhibition (%)=(1−(ODo/OD))×100.
(§3) The M24 cell line is derived from human melanoma cells. The U2OS cell line is a human osteosarcoma cell line expressing wild type p53 and Rb, but lacking p16. The MM1S cell line is a multiple myeloma cell line; the parent cell line, MM.1, was established from peripheral blood of a multiple myeloma patient who had become resistant to steroid-based therapy. The RPMI8226 cell line is derived from human B lymphocyte cells. NHDF cells are normal human dermal fibroblast cells. The MRC-5 cell line is derived from normal lung tissue of a fetus. The PC3 cell line is a human prostate cancer cell line. The DU-145 cell line is a human prostate cancer cell line. The MDA-MB-231 cell line is a human breast adenocarcinoma cell line. The MDA-MB-468 cell line is a human breast carcinoma cell line. HL-60 cells are human promyelocytic leukemia cells. Hep G2 cells are human hepatocellular carcinoma cells. HEP 3B cells are human hepatocellular carcinoma cells. The DLD-1 cell line is a colorectal adenocarcinoma cell line. The HCT-15 cell line is a human colon carcinoma cell line. The Colo-205 cell line is derived from a human adenocarcinoma of the colon. The LoVo cell line is a human colon adenocarcinoma cell line.

Hep G2 cells = experiment: MTT cell proliferation assay; format: cell-based; conditions: Homo sapiens, HepG2; Hep G2 cell line; read-out: MTT Assay IC50, Hep G2
Experimental: as §2, §3

HEP 3B cells = experiment: MTT cell proliferation assay; format: cell-based; conditions: Homo sapiens, Hep3B; HEP 3B cell line; read-out: MTT Assay IC50, HEP 3B
Experimental: as §2, §3

Molt-4 xenografts = experiment: Molt-4 T-ALL xenograft in SCID mice; format: in vivo, mouse; conditions: 100 mg/kg PO twice daily (BID)
Experimental: In this study, the impact of Compounds 667 and 728 on tumor growth was tested using the Molt-4 T-ALL cancer xenograft model in SCID mice. MOLT-4 (CRL-1582) acute lymphoblastic leukemia cells were obtained from ATCC. These cells were grown in RPMI-1640 medium supplemented with 10% fetal bovine serum, 1% penicillin and streptomycin. Cells were sub-cultured by transferring floating cells to a new flask and trypsinizing adherent cells before subculturing at a ratio of 1:4. Molt-4 cells were harvested by centrifugation and counted using a hemocytometer. Cells were resuspended in PBS at a 5×10^7 cells per mL. Cells were placed on ice and mixed with an equal volume of Matrigel (BD Biosciences CB-40234). This mixture was kept on ice and injected into the left flank of mice in a volume of 0.2 mL, equivalent to 5×10^6 cells per mouse. Twenty-four (24) CB-17 SCID mice were inoculated subcutaneously in the left flank with the Molt-4 cells. Treatment was initiated when the tumors reached a mean volume of approximately 100 mm^3. Mice were allocated to three (3) groups of eight (8) mice. Mice were treated with vehicle, Compound 667 or Compound 728. Compounds 667 and 728 (100 mg/kg) were given orally (PO) twice daily (BID) beginning on Day 1. Animal weights and conditions were recorded daily, and tumors were measured on Mondays, Wednesdays and Fridays.

## Nc1ccc(/C=C/C(=O)NCc2cc3cc(-c4ccc(C(=O)N5CCOCC5)cc4)cc(Cl)c3o2)cn1 [Compound 502, (E)-3-(6-aminopyridin-3-yl)-N-((7-chloro-5-(4-(morpholine-4-carbonyl)phenyl)benzofuran-2-yl)methyl)acrylamide]
3T3 cells; read-out: MTT Assay IC50 3T3
  IC50: > 10 µM
MS751 cells; read-out: MTT Assay IC50 MS-751
  IC50: 0.1 to 5 µM
Z138 cells; read-out: MTT Assay IC50 Z-138
  IC50: 0.1 to 5 µM
MRC-5 cells
  IC50: 0.1 to 5 µM
Hep G2 cells
  IC50: 0.1 to 5 µM
HEP 3B cells
  IC50: 0.1 to 5 µM

## Nc1ccc(/C=C/C(=O)NCc2cc3cc(-c4ccc(C(=O)N5CCC(F)(F)CC5)cc4)cc(-c4ccc(F)cc4)c3o2)cn1 [Compound 728, (E)-3-(6-aminopyridin-3-yl)-N-((5-(4-(4,4-difluoropiperidine-1-carbonyl)phenyl)-7-(4-fluorophenyl)benzofuran-2-yl)methyl)acrylamide]
3T3 cells; read-out: MTT Assay IC50, 3T3
  IC50: 0.1 to 5 µM
MS751 cells; read-out: MTT Assay IC50, MS-751
  IC50: < 0.1 µM
Z138 cells; read-out: MTT Assay IC50, Z-138
  IC50: < 0.1 µM
Molt-4 xenografts
  median tumor volume of Molt-4 xenografts (as a percentage of pre-dose tumor volume): tumor growth inhibition
